1 compound from patent publication US9358272B2, “Multicomponent compositions and their uses” (THE ADMINISTRATORS OF THE TULANE EDUCATIONAL FUND, priority 2011, dated 2016) can be followed below.

“Also recorded” adds a separate entry of the source.

For test [1], the system named is cervical cancer Hela tumors. The test can be described thus: In vivo tumor growth and treatment, Hela tumors. Also on record: species or system nude mice. The following applies: for tumor inhibitory rate: Hela tumors in nude mice.
Protocol: In Vivo Tumor Growth and Treatment
(§6) All mice were monitored weekly. Tumor volumes were measured at 11 days post-implantation and bodyweights taken once a week. Tumors were weighed and photographed when experiments were over.
(§7) After being harvested during exponential growth phase, cells were washed 3 times with ice-cold PBS and then re-suspended in ice-cold PBS at a cell density of 4×10^7 cells/ml. […] Tumor-carrying mice were separated into four groups (n=8-10) for further treatment using s.c. injections that was applied in the flank opposite of the tumors. A control group was injected with PBS, and three tested groups were treated with compounds. One group received conjugate COL-SST (2 mg/kg) and one group received 200 mg/kg of VPA. The last group was treated with 100 mg/kg of VPA in combination with 1 mg/kg of COL-SST. All mice were injected once a day, five times a week. Tumor volumes were measured and bodyweights taken once a week.
After being harvested during their exponential growth phase, cells were washed 3 times with ice-cold PBS and then re-suspended in ice-cold PBS at a cell density of 4×10^7 cells/ml. […] Tumor-carrying mice were separated into four groups (n=8-10) for further treatment using s.c. injections that were applied in the flank opposite to the tumors. A control group was injected with PBS and three tested groups were treated with compounds. One group received conjugate COL-SST (2 mg/kg) and one group received 200 mg/kg of VPA. The last group was treated with 100 mg/kg of VPA in combination with 1 mg/kg of COL-SST. All mice were injected once a day, five times a week. Tumor volumes were measured and bodyweights taken once a week.
Test [2] deals with pancreatic carcinoid BON tumors. The test can be described thus: In vivo tumor growth and treatment, BON tumors. Also on record: species or system nude mice. The following applies: FIG. 43.
Protocol: In Vivo Tumor Growth and Treatment
as §6, §7
After being harvested during their exponential growth phase, cells were washed 3 times with ice-cold PBS and then re-suspended in ice-cold PBS at a cell density of 4×10^7 cells/ml. […] Tumor-carrying mice were separated into four groups (n=8-10) for further treatment using s.c. injections that were applied in the flank opposite to the tumors. […] Tumor volumes were measured and bodyweights taken once a week.
For test [3], the system named is medullary thyroid cancer (MTC) TT cells. The test can be described thus: Cell proliferation assay (MTT), TT cells. Type of test: cell-based. The conditions noted are these: single agents and combinations.
Another test concerns Jurkat cells. Nature of the test: VPA-induced cell morphological change, Jurkat cells. Type of test: cell-based. The text has this:
(§1) The cancer cells were inspected and photographed under an inverted light microscope at 10× magnification.

A further test relates to SCLC DMS53 cells. Nature of the test: VPA-induced cell morphological change, DMS53 cells. Type of test: cell-based.
From the text: as §1

Test [4] concerns small cell lung cancer DMS-53 cells. Nature of the test: Cell proliferation assay (MTT), DMS-53 cells. It counts as cell-based. The conditions noted are these: single agents and combinations, 2.5 mM VPA or 10 uM SBHA in FIGS. 21, 24.
Protocol: (§8) Briefly, fifty μl of medium with or without tested compounds was added to 96-well plates. Another 50 μl of tested cancer cells (1×10^5 cells/ml) suspended in culture medium was dispensed into each well. The plates were incubated at 37° C. for 3 days. Afterward, plates were added with a 15 μl dye solution per well and incubated at 37° C. for 4 hours. To each well was then added 100 μl of the solubilization solution and the plates were incubated at 37° C. again until the contents in each well became a uniformly colored solution. The plates were measured at 570 nm by a Victor Reader (PerkinElmer).
The subject of test [5] is hepatoma HB-8064 (Hep3B) cells. The test can be described thus: Cell proliferation assay (MTT), HB-8064 cells. Type of test: cell-based. The method, then: (§2) Cell Proliferation Assay (MTT) The cell proliferation assay (Promega, Madison, Wis.) was performed as described in Sun et al., Bioorg Med Chem Lett, 2004, Vol. 14, pp. 2041-2046. The absorbance was measured and recorded at 570 nm by a Victor Plate Reader (PerkinElmer, Boston, Mass.).

The subject of test [6] is colonrectal cancer HT-29 cells. The test can be described thus: Cell proliferation assay (MTT), HT-29 cells. Type of test: cell-based, Human. The following applies: single agents and combinations. The method, then:
(§3) Cell Proliferation Assay (MTT)
(§4) The cell proliferation assay was performed as described previously in Sun et al., Bioorg Med Chem Lett, 2004, Vol. 14, pp. 2041-2046. Briefly, 50 μl aliquots of medium with different concentrations of compounds were added to 96-well plates. All compound concentrations were tested in triplicate. Another 50 μl of the cell stock (1×10^5 cells/ml of media) was dispensed into each test well and the plates were incubated at 37° C. in a CO2 incubator for 3 days. Following the incubation period, 15 μl of the dye solution was added to each well and the plates were then incubated at 37° C. for 4 hours, followed by the addition of 100 μl per well of the solubilization solution. The plates were incubated at 37° C. until the contents in each well became a uniform-colored solution. The absorbance was measured and recorded at 570 nm by a Victor Plate Reader.
(§5) The cell proliferation assay (Promega, Madison, Wis.) was performed as described in Sun et al., Bioorg Med Chem Lett, 2004, Vol. 14, pp. 2041-2046. The absorbance was measured and recorded at 570 nm by a Victor Plate Reader (PerkinElmer, Boston, Mass.).

The test system of a further test is CNDT2 cells. Nature of the test: Cell proliferation assay (MTT), CNDT2 cells. Type of test: cell-based. The following applies: single agents and combinations. Here is the method:
as §2

The next test deals with lung cancer A549 cells. Nature of the test: Cell proliferation assay (MTT), A549 cells. Type of test: cell-based. The method, then:
as §2

The subject of the next test is HPB-ALL cells. The test can be described thus: VPA-induced cell morphological change, HPB-ALL cells. It counts as cell-based, Human.
From the text: as §1

For another test, the system named is hepatoma HTB-52 cells. The test can be described thus: Cell proliferation assay (MTT), HTB-52 cells. Type of test: cell-based. The conditions noted are these: single agents and combinations. The method, then: as §2
The next test has as its system cancer DU-145 cells. The test can be described thus: VPA-induced cell morphological change, DU-145 cells. It counts as cell-based.
From the text: as §1

The subject of test [7] is cervical cancer Hela cells. Nature of the test: VPA-induced cell morphological change, Hela cells. It counts as cell-based, Human. The conditions noted are these: VPA at 8 mM in FIG. 25.
From the text: as §1

Another test has as its system Leukemia MOLT-4 cells. The test can be described thus: VPA-induced cell morphological change, MOLT-4 cells. It counts as cell-based.
From the text: as §1

Test [8] deals with ovarian cancer NCI/ADR-RES cells. Nature of the test: VPA-induced cell morphological change, NCI/ADR-RES cells. It counts as cell-based.
From the text: as §1

In another test the test system is MTC TT cells. Nature of the test: VPA-induced cell morphological change, TT cells. It counts as cell-based.
From the text: as §1

The test system of test [9] is pancreatic cancer CFPAC-1 cells. The test can be described thus: Cell proliferation assay (MTT), CFPAC-1 cells. Type of test: cell-based, Human. The following applies: single agents and combinations. The method, then:
as §3, §4, §5

The test system of test [10] is cervical cancer Hela cells. The test can be described thus: Cell proliferation assay (MTT), cervical cancer Hela cells. It counts as cell-based, Human. The following applies: single agents and combinations, VPA 2.5 mM in FIGS. 19, 22.
Protocol: as §8

Consider `CCCC(CCC)C(=O)O` [VPA, valproic acid], for which the tumor inhibitory rate is reported as 36.7% in [1] (VPA at 200 mg/kg s.c. once a day, five times a week, FIG. 42); 46% in [1] (VPA at 200 mg/kg, FIG. 37); 47.9% in test [2] (BON tumors in nude mice, VPA at 200 mg/kg s.c. once a day, five times a week). Besides, in test [1] (nude mice, FIG. 42), the “suppression of Hela tumors, in words” value is listed as “induced suppression”. Besides, the “suppression of BON tumors, in words” value in [2] (nude mice) is “induced suppression”. Moreover, the “cell growth suppression (MTT), in words” value in [3] was “induced growth arrest”; in test [4], “displayed growth inhibition; also recorded: induced growth arrest”; in test [5], “displayed its anti-proliferative ability”; in test [6] it was “displayed its anti-proliferative ability; also recorded: displays its anti-proliferation ability”; in the test on CNDT2 cells, “suppressed growth”; in the test with lung cancer A549 cells, “little effect; also recorded: not apparent”. Further, the figures for the “cell growth suppression (MTT), in words” value (in the test on hepatoma HTB-52 cells; in test [9]; in [10]) were “displayed its anti-proliferative ability”, “displayed its anti-proliferative ability” and “displayed growth inhibition; also recorded: suppressed cell proliferation in a dose-dependent manner; also recorded: induced growth arrest; also recorded: suppressed cervical cancer Hela cell growth in a dose-dependent manner”, respectively. Further, the “cell morphological change, in words” value with Jurkat cells is reported as “no effect”; in the test with SCLC DMS53 cells it was “no effect”; in the test on HPB-ALL cells, “no effect”; with cancer DU-145 cells, “no effect”; in test [7], “could induce morphological change”; in the test with Leukemia MOLT-4 cells, “no effect”. In addition, the “cell morphological change, in words” value (in [8]; in the test on MTC TT cells) was “no effect” throughout.
